In the CheMixHub viscosity set:

Test: xn = mol fraction of the nth substance listed

C1CCCCCCC1 + C1CCCC1
101 kPa
Details	viscosity [mPa·s]
298.15 K, x1 = 0.0472	0.4501
298.15 K, x1 = 0.06	0.4609
298.15 K, x1 = 0.1203	0.5119
298.15 K, x1 = 0.1974	0.5838
298.15 K, x1 = 0.1982	0.5837
298.15 K, x1 = 0.2776	0.6681
298.15 K, x1 = 0.4053	0.824
298.15 K, x1 = 0.4083	0.827
298.15 K, x1 = 0.5052	0.968
298.15 K, x1 = 0.5909	1.116
298.15 K, x1 = 0.6747	1.276
298.15 K, x1 = 0.7902	1.55
298.15 K, x1 = 0.9049	1.895
303.15 K, x2 = 0.1036	1.684
303.15 K, x2 = 0.2009	1.421
303.15 K, x2 = 0.3014	1.205
303.15 K, x2 = 0.3972	1.031
303.15 K, x2 = 0.5003	0.8744
303.15 K, x2 = 0.5992	0.7468
303.15 K, x2 = 0.7036	0.6288
303.15 K, x2 = 0.8996	0.4555

C1CCCCCCC1 + C1CCCCC1
viscosity [mPa·s], 101 kPa
Details	303.15 K	308.15 K	313.15 K
x2 = 0.0546	–	1.706	1.541
x2 = 0.0923	1.877	–	–
x2 = 0.1695	–	1.514	1.381
x2 = 0.2019	1.715	–	–
x2 = 0.2513	–	1.41	1.277
x2 = 0.2992	1.585	–	–
x2 = 0.3712	–	1.274	1.165
x2 = 0.4839	–	1.158	1.054
x2 = 0.4989	1.344	–	–
x2 = 0.5516	–	1.097	1.004
x2 = 0.5811	1.254	–	–
x2 = 0.6466	1.183	–	–
x2 = 0.6567	–	1.006	0.9146
x2 = 0.7233	1.102	–	–
x2 = 0.7817	–	0.9053	0.8267
x2 = 0.8015	1.021	–	–
x2 = 0.8998	0.924	–	–
x2 = 0.9314	–	0.8049	0.7359

CCCCC + C1CCCCC1
101 kPa
Details	viscosity [mPa·s]
293.15 K, x2 = 0.2248	0.287
293.15 K, x2 = 0.3367	0.327
293.15 K, x2 = 0.4743	0.39
293.15 K, x2 = 0.601	0.466
293.15 K, x2 = 0.7202	0.561
293.15 K, x2 = 0.8333	0.685
298.15 K, x2 = 0.176	0.264
298.15 K, x2 = 0.3541	0.321
298.15 K, x2 = 0.4788	0.372
298.15 K, x2 = 0.6163	0.447
298.15 K, x2 = 0.7478	0.544
298.15 K, x2 = 0.8754	0.68

CCCCCCCO + C1CCCCC1
viscosity [mPa·s]
Details	293.15 K	303.15 K	313.15 K	323.15 K
100 kPa, x2 = 0.0812	6.08	4.38	3.22	2.46
100 kPa, x2 = 0.1614	5.3	3.79	2.82	2.16
100 kPa, x2 = 0.2386	4.61	3.28	2.47	1.91
100 kPa, x2 = 0.3496	3.76	2.69	2.05	1.59
100 kPa, x2 = 0.4387	3.17	2.28	1.75	1.38
100 kPa, x2 = 0.5596	2.47	1.81	1.41	1.12
100 kPa, x2 = 0.6491	2.02	1.52	1.18	0.95
100 kPa, x2 = 0.7411	1.64	1.27	1	0.82
100 kPa, x2 = 0.8503	1.28	1.03	0.83	0.7
100 kPa, x2 = 0.9397	1.07	0.87	0.72	0.62
101.33 kPa, x1 = 0.0996	–	0.9648	–	–
101.33 kPa, x1 = 0.197	–	1.134	–	–
101.33 kPa, x1 = 0.3024	–	1.357	–	–
101.33 kPa, x1 = 0.3923	–	1.585	–	–
101.33 kPa, x1 = 0.5062	–	1.936	–	–
101.33 kPa, x1 = 0.6052	–	2.307	–	–
101.33 kPa, x1 = 0.7008	–	2.749	–	–
101.33 kPa, x1 = 0.795	–	3.258	–	–
101.33 kPa, x1 = 0.884	–	3.84	–	–

OC1CCCCC1 + C1CCCCC1
101 kPa
Details	viscosity [mPa·s]
303.15 K, x2 = 0.05	19
303.15 K, x2 = 0.09	15.63
303.15 K, x2 = 0.14	12.83
308 K, x2 = 0.1168	10.68
308 K, x2 = 0.2322	7.143
308 K, x2 = 0.3358	4.937
308 K, x2 = 0.4443	3.51
308 K, x2 = 0.5452	2.453
308 K, x2 = 0.6483	1.716
308 K, x2 = 0.7411	1.326
308 K, x2 = 0.8311	1.049
308 K, x2 = 0.918	0.8891
323.15 K, x2 = 0.05	7.54
323.15 K, x2 = 0.09	6.39
323.15 K, x2 = 0.14	5.53

CCCCC + C1CCOC1
viscosity [mPa·s], 101 kPa
Details	x2 = 0.1001	x2 = 0.2001	x2 = 0.3001	x2 = 0.4001	x2 = 0.5001	x2 = 0.6001	x2 = 0.7001	x2 = 0.8001	x2 = 0.9001
293.15 K	0.2331	0.2498	0.2688	0.2894	0.3116	0.3371	0.3686	0.4034	0.4485
298.15 K	0.2241	0.2405	0.258	0.2768	0.2977	0.3204	0.347	0.38	0.4212

CCOC(=O)C(C)O (stereo unspecified) + C1CCOC1
101 kPa
Details	viscosity [mPa·s]
308.15 K, x1 = 0.6999	1.255
313.15 K, x1 = 0.4001	0.7575

CS(C)=O + C1CCOC1
298.15 K, 101 kPa
Details	viscosity [mPa·s]
x2 = 0.27	1.523
x2 = 0.52	1.112
x2 = 0.76	0.7376

CCCCC + CC1CCCCC1
viscosity [mPa·s], 101 kPa
Details	x2 = 0.0407	x2 = 0.2014	x2 = 0.2807	x2 = 0.3471	x2 = 0.4382	x2 = 0.6005	x2 = 0.681	x2 = 0.7595	x2 = 0.8406	x2 = 0.9199
293.15 K	0.2369	0.2738	0.2958	0.3151	0.3506	0.429	0.4775	0.5323	0.5947	0.6586
298.15 K	0.2277	0.2567	0.2795	0.3014	0.337	0.4124	0.4571	0.5046	0.5587	0.6168
303.15 K	0.1977	0.2381	0.2612	0.2824	0.3164	0.3885	0.431	0.4771	0.5299	0.5849

CCCCCCCO + CC#N
viscosity [mPa·s], 101 kPa
Details	298.15 K	303.15 K	308.15 K
x2 = 0.0959	3.772	3.561	2.881
x2 = 0.2368	2.953	2.592	2.277
x2 = 0.3327	2.267	2.022	1.808
x2 = 0.4126	1.836	1.634	1.457
x2 = 0.5459	1.278	1.149	1.047
x2 = 0.6546	0.943	0.857	0.786
x2 = 0.741	0.716	0.658	0.611
x2 = 0.8119	0.58	0.547	0.51
x2 = 0.8706	0.487	0.463	0.433
x2 = 0.9199	0.423	0.402	0.382
x2 = 0.9633	0.384	0.366	0.35

C[N+](C)(C)CCC[n+]1ccccc1.N#C[N-]C#N.N#C[N-]C#N + CC#N
100 kPa
Details	viscosity [mPa·s]
293.15 K, x1 = 0.1999	10.75
298.15 K, x1 = 0.0999	3.205
298.15 K, x1 = 0.1999	9.545
298.15 K, x1 = 0.4999	98.11
308.15 K, x1 = 0.2998	20.95
313.15 K, x1 = 0.2998	18.15
318.15 K, x1 = 0.7998	117.5

CC(=O)CC(C)(C)O + CC(=O)CC(C)C
298.15 K, 101 kPa
Details	viscosity [mPa·s]
x2 = 0.1301	2.157
x2 = 0.2473	1.707
x2 = 0.3676	1.351
x2 = 0.4821	1.108
x2 = 0.5836	0.943
x2 = 0.6974	0.796
x2 = 0.8046	0.687
x2 = 0.9001	0.608

CCN(CC)CCO + CC(=O)N(C)C
viscosity [mPa·s], 101 kPa
Details	298.15 K	308.15 K	318.15 K
x2 = 0.0505	2.874	2.164	1.669
x2 = 0.0999	2.683	1.999	1.517
x2 = 0.1499	2.512	1.849	1.374
x2 = 0.2004	2.356	1.715	1.254
x2 = 0.2997	2.089	1.502	1.08
x2 = 0.3997	1.871	1.314	0.956
x2 = 0.5008	1.677	1.207	0.861
x2 = 0.5998	1.51	1.103	0.792
x2 = 0.6995	1.357	1.015	0.747
x2 = 0.7989	1.2	0.932	0.721
x2 = 0.8997	1.046	0.854	0.7

NS(=O)(=O)O + CC(=O)N(C)C
298 K, 101.33 kPa
Details	viscosity [mPa·s]
x1 = 0.02772	1.19
x1 = 0.05584	1.637
x1 = 0.08283	2.268
x1 = 0.1075	3.241
x1 = 0.33	1.147
x1 = 0.67	1.499

CCN(CC)CCO + CC(=O)c1ccccc1
viscosity [mPa·s], 101.3 kPa
Details	x2 = 0.1124	x2 = 0.2218	x2 = 0.3282	x2 = 0.4318	x2 = 0.5327	x2 = 0.631	x2 = 0.7268	x2 = 0.8201	x2 = 0.9112
303.15 K	3.131	2.954	2.778	2.601	2.424	2.247	2.07	1.894	1.717
313.15 K	2.304	2.193	2.083	1.972	1.862	1.752	1.641	1.531	1.42
323.15 K	1.458	1.446	1.434	1.419	1.401	1.381	1.36	1.335	1.311

CCCCC + CC(C)(C)O
viscosity [mPa·s], 101 kPa
Details	x1 = 0.1023	x1 = 0.2048	x1 = 0.3056	x1 = 0.407	x1 = 0.5068	x1 = 0.606	x1 = 0.7043	x1 = 0.8042	x1 = 0.902
293.15 K	1.891	1.128	0.88	0.771	0.657	0.485	0.373	0.32	0.281
303.15 K	1.992	1.162	1.011	1.064	0.954	0.769	0.616	0.49	0.36
313.15 K	1.996	1.211	1.298	1.282	1.182	1.012	0.832	0.625	0.455

CCN(CC)S(C)(=O)=O + CC(C)(C)O
303.15 K, 101.33 kPa
Details	viscosity [mPa·s]
x1 = 0.0764	28570
x1 = 0.1463	26300
x1 = 0.2364	24820
x1 = 0.3171	24370
x1 = 0.3944	24530
x1 = 0.4712	25010
x1 = 0.5369	25790
x1 = 0.6062	26640
x1 = 0.6888	27960
x1 = 0.7621	30100
x1 = 0.8534	33040
x1 = 0.9381	36570

CS(C)=O + CC(C)=O
302.4 K, 101 kPa
Details	viscosity [mPa·s]
x1 = 0.0644	0.7031
x1 = 0.1924	0.809
x1 = 0.3826	1.14
x1 = 0.508	1.554
x1 = 0.6325	2.09
x1 = 0.8173	2.443
